Legend:
[1] = tested on: giant foxtail; assay: Test A preemergence; format: in vivo, Setaria faberii; settings: for Foxtail, Giant plant response rating: 0 to 100 scale, 0 no effect, 100 complete control, approx. 10 days
Method in brief: (§1)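 Greenhouse pot test, loam/sand soil. Formulation: non-phytotoxic solvent mix plus surfactant. Pre: directed spray onto soil after sowing. Post: plants at 1–2 leaf, 2–10 cm. Rated visually vs untreated controls at ~10 d, 0 (no effect) to 100 (complete control).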

[2] = tested on: wheat, winter; assay: Test C postemergence; format: in vivo, Triticum aestivum; settings: for Plant response rating (0 to 100), Wheat: postemergence; for Plant response rating, Wheat: Postemergence, scale 0 to 100 (0 no effect, 100 complete control)
Method in brief: (§2)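 Seeds were sown in loam–sand blend and sprayed preemergence, while plants at 1- to 4-leaf stage (2–18 cm) in peat-based medium received postemergence sprays; test chemicals were formulated in a non-phytotoxic solvent with surfactant. After 13–15 days in a greenhouse, injury was rated visually against controls, 0 (no effect) to 100 (complete control).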

[3] = tested on: large (Lg) crabgrass; assay: Test C postemergence; format: in vivo, Digitaria sanguinalis; settings: for Plant response rating, Crabgrass, Large: Postemergence
Method in brief: as §2

[4] = tested on: corn; assay: Test C postemergence; format: in vivo, Zea mays; settings: for Plant response rating, Corn: Postemergence
Method in brief: as §2

[5] = tested on: large (Lg) crabgrass; assay: Test A preemergence; format: in vivo, Digitaria sanguinalis
Method in brief: as §1

[6] = tested on: Heteranthera limosa; assay: Test B flooded paddy test; format: in vivo; settings: Flood, 250 g ai/ha; 0 to 100 scale where 0 is no effect and 100 is complete control
Method in brief: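 Plants at 2-leaf stage; pots flooded to 3 cm above soil and compound applied directly into paddy water, depth held throughout. After 13 to 15 days in greenhouse, visual rating versus controls on 0 (no effect) to 100 (complete control) scale.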

[7] = tested on: velvetleaf; assay: Test A preemergence; format: in vivo, Abutilon theophrasti; settings: for Velvetleaf plant response rating: 0 to 100 scale, 0 no effect, 100 complete control, approx. 10 days
Method in brief: as §1

[8] = tested on: pigweed; assay: Test A postemergence; format: in vivo, Amaranthus retroflexus
Method in brief: as §1

[9] = tested on: chickweed; assay: Test C postemergence; format: in vivo, Stellaria media; settings: for Plant response rating, Chickweed: Postemergence
Method in brief: as §2

[10] = 16 g ai/ha, postemergence, visual rating, scale 0 to 100 (0 no effect, 100 complete control), 13 to 15 days
[11] = 31 g ai/ha, scale 0 to 100 (0 no effect, 100 complete control), 13 to 15 days
[12] = 62 g ai/ha, scale 0 to 100 (0 no effect, 100 complete control)
[13] = 1000 g ai/ha, 0 to 100 scale, 0 no effect, 100 complete control
[14] = 125 g ai/ha, 0 to 100 scale where 0 is no effect and 100 is complete control
[15] = 8 g ai/ha, postemergence, 0 is no effect, 100 is complete control
[16] = 16 g ai/ha, postemergence, 0 is no effect, 100 is complete control
[17] = 4 g ai/ha, postemergence, 0 is no effect, 100 is complete control

Structure (SMILES)	Foxtail, Giant plant response rating ([1]; 1000 g ai/ha)	Plant response rating (0 to 100), Wheat ([2]; 125 g ai/ha)	Plant response rating, Wheat ([2]; 31 g ai/ha, 13 to 15 days)	Plant response rating, Wheat ([2]; 62 g ai/ha)	Plant response rating (0 to 100), Crabgrass, Large ([3]; 125 g ai/ha, postemergence)	Plant response rating, Crabgrass, Large [3, 11]	Plant response rating, Crabgrass, Large [3, 12]	Plant response rating (0 to 100), Corn ([4]; 125 g ai/ha, postemergence)	Plant response rating, Corn [4, 11]	Plant response rating, Corn [4, 12]	Plant response rating, Crabgrass, Large [5, 13]	Plant response rating, Ducksalad [6]	Velvetleaf plant response rating ([7]; 1000 g ai/ha)	Plant response rating, Pigweed [8, 13]	Plant response rating (0 to 100), Chickweed ([9]; 125 g ai/ha, postemergence)	Plant response rating, Chickweed [9, 11]	Plant response rating, Chickweed [9, 12]	other results
Clc1cnc(Oc2cccc(Br)c2-n2cc(Br)cn2)nc1 [Compound 65]	100	10	0	5	5	5	5	10	10	10	100	95	100	100	98	50	70	Crabgrass, Large plant response rating [3, 10]: 5; Corn plant response rating [4, 10]: 5; Chickweed plant response rating [9, 10]: 60
N#Cc1cccc(Oc2ncc(Cl)cn2)c1-n1cnc(Br)c1 [Compound 74]	–	0	0	0	15	5	5	15	10	10	–	40	–	–	50	25	30	Plant response rating, Foxtail, Giant [1, 14]: 90; Foxtail, Giant plant response rating ([1]; 500 g ai/ha): 100; Plant response rating (0 to 100), Wheat ([2]; 250 g ai/ha): 5; Plant response rating (0 to 100), Crabgrass, Large ([3]; 250 g ai/ha, postemergence): 20; Plant response rating (0 to 100), Corn ([4]; 250 g ai/ha, postemergence): 20; Plant response rating, Crabgrass, Large [5, 14]: 100; Crabgrass, Large plant response rating ([5]; 500 g ai/ha, 0 to 100 scale, 0 no effect, 100 complete control, approx. 10 days): 100; Plant response rating, Velvetleaf [7, 14]: 70; Velvetleaf plant response rating ([7]; 500 g ai/ha): 100; Plant response rating, Pigweed [8, 14]: 100; Plant response rating, Pigweed ([8]; 500 g ai/ha, 0 to 100 scale where 0 is no effect and 100 is complete control): 100; Plant response rating (0 to 100), Chickweed ([9]; 250 g ai/ha, postemergence): 50
CC(=NO)c1cn(-c2c(Br)cccc2Oc2ncc(Cl)cn2)nn1 [Compound 115]	100	–	–	–	–	–	–	–	–	–	100	70	100	100	–	–	–	Plant response rating (0 to 100), Wheat ([2]; 8 g ai/ha, 0 is no effect, 100 is complete control): 0; Plant response rating (0 to 100), Wheat ([2]; 16 g ai/ha, 0 is no effect, 100 is complete control): 0; Plant response rating (0 to 100), Crabgrass, Large [3, 15]: 5; Plant response rating (0 to 100), Crabgrass, Large [3, 16]: 5; Plant response rating (0 to 100), Corn [4, 17]: 5; Plant response rating (0 to 100), Corn [4, 15]: 10; Plant response rating (0 to 100), Corn [4, 16]: 5; Plant response rating (0 to 100), Chickweed [9, 17]: 0; Plant response rating (0 to 100), Chickweed [9, 15]: 5; Plant response rating (0 to 100), Chickweed [9, 16]: 5

Source: US9695155B2, “Herbicidal substituted pyrimidinyloxy benzene compounds” (E. I. DU PONT DE NEMOURS AND COMPANY, priority 2013, dated 2017)
